Source: PMC6753678, “Fueling Open Innovation for Malaria Transmission-Blocking Drugs: Hundreds of Molecules Targeting Early Parasite Mosquito Stages” (Frontiers in Microbiology, 2019)
Like-named read-outs stand apart in the source and are kept apart here.

Assays:
[1] = system: P. falciparum late stage (stages IV-V) gametocytes; assay: P. falciparum late stage gametocyte ATP depletion assay (Pf GC-ATP); conditions: 1: YES; 0: NO
[2] = system: P. falciparum female gametocytes; assay: P. falciparum female gametogenesis assay (Pf FGAA); conditions: 1: YES; 0: NO
HepG2 cells [3] = assay: HepG2 cytotoxicity assay; conditions: HepG2 cytotoxicity unified across the three screens
In short: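 Cells are plated at 2,500 per well on compound-treated plates in MEM containing 10% fetal bovine serum and 1% NEAA, then incubated 48 h at 37°C.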

[4] = system: P. falciparum late stage (stages IV-V) gametocytes; design: method as in Almela et al 2016; conditions: TCAMS screen comparison; ref Almela et al 2016; read-out: Pf GCT ATP IC50; cited from earlier work
HepG2 cells [5] = conditions: cited from earlier work
[6] = system: P. falciparum female gametocytes; design: method as in Miguel-Blanco et al 2017; conditions: TCAMS screen comparison; ref Miguel-Blanco et al 2017; read-out: Pf FGAA IC50; cited from earlier work
[7] = value reported with the Pf FGAA screen, ref Miguel-Blanco et al 2017
[8] = value reported with the Pf GCT ATP screen, ref Almela et al 2016

Compound	Is compound selective in assay? Pf GC-ATP active? [1]	Is compound selective in assay? Pf FGAA active? [2]	Unified cytotox (HepG2 cells [3]) [µM]	IC50 [4] [nM]	HepG2 cytoxicity (HepG2 cells [5]; [7]) [µM]	HepG2 cytoxicity (HepG2 cells [5]; [8]) [µM]	IC50 [6] [nM]
CCCCOc1ccc(CNCCCCCCNCc2ccc(OCCCC)c3ccccc23)c2ccccc12.CS(=O)(=O)O [TCMDC-137281]	0 (0: NO)	0 (0: NO)	2.67	2800	2.29	3.04	400
CS(=O)(=O)O.FC(F)(F)COc1ccc(CCNCCCCNCCc2ccc(OCC(F)(F)F)c3ccccc23)c2ccccc12 [TCMDC-137282]	1 (1: YES)	1 (1: YES)	2.33	26.7	1.66	3	200
CS(=O)(=O)O.FC(F)(F)COc1ccc2ccccc2c1CCNCCCCNCCc1c(OCC(F)(F)F)ccc2ccccc12 [TCMDC-137317]	0 (0: NO)	0 (0: NO)	2.70	1370	2.09	3.3	1010
COc1cc2c(cc1CCNCCCCNCCc1cc3c(cc1OC)CCCC3)CCCC2.CS(=O)(=O)O [TCMDC-137319]	1 (1: YES)	0 (0: NO)	1.86	80	1.86	<1.56	890
COc1ccc2c(c1CCNCCCCNCCc1c(OC)ccc3c1CCCC3)CCCC2.CS(=O)(=O)O [TCMDC-137324]	0 (0: NO)	0 (0: NO)	1.21	150	1.68	0.75	640
C=CCOc1ccc2ccccc2c1CNCCCCCCNCc1c(OCC=C)ccc2ccccc12.CS(=O)(=O)O [TCMDC-137340]	0 (0: NO)	0 (0: NO)	1.93	250	1.93	<1.56	700
Cl.c1ccc2c(Nc3ccc(Cc4ccc(Nc5c6ccccc6nc6ccccc56)cc4)cc3)c3ccccc3nc2c1 [TCMDC-137354]	0 (0: NO)	0 (0: NO)	4.17	2300	3.85	4.49	1040
Br.C/C=C/C=C/C1=NCCc2cc(OCCC)ccc21 [TCMDC-137442]	1 (1: YES)	1 (1: YES)	18.64	750	18.29	19	1300
Cl.N=C(NCCCCC1CCCCC1)c1cccc(C(=N)NCCCCC2CCCCC2)n1 [TCMDC-137452]	0 (0: NO)	0 (0: NO)	1.71	220	1.82	1.6	1050
CC(CNC(=N)c1cccc(C(=N)NCC(C)Oc2cccc(C3CCCCC3)c2)n1)Oc1cccc(C2CCCCC2)c1.Cl (centres unmarked) [TCMDC-137455]	1 (1: YES)	0 (0: NO)	2.85	240	2.16	3.53	1270
N=C(NCC1CC1c1ccccc1)c1cccc(C(=N)NCC2CC2c2ccccc2)n1 (centres unmarked) [TCMDC-137456]	1 (1: YES)	0 (0: NO)	6.50	450	6.21	6.8	1890
COc1ccc(CNCCCCCCNCc2ccc(OC)c3ccccc23)c2ccccc12.Cl [TCMDC-137631]	0 (0: NO)	0 (0: NO)	2.44	510	1.82	3.06	720
CN1CCN(CCNc2c3ccccc3nc3c2ccc2ccccc23)CC1.Cl [TCMDC-137723]	1 (1: YES)	0 (0: NO)	5.84	390	5.07	6.6	3490
COc1ccc2nc(-c3ccccc3)cc(NCCCNc3cc(-c4ccccc4)nc4ccc(OC)cc34)c2c1.Cl [TCMDC-137734]	1 (1: YES)	0 (0: NO)	38.15	1210	70.79	5.5	5600
Cl.c1ccc2c(NCCCCCCCCCNc3ccnc4ccccc34)ccnc2c1 [TCMDC-137750]	0 (0: NO)	0 (0: NO)	2.20	1030	1.50	2.9	850
Cl.c1ccc2c(NCCCCCCCCNc3ccnc4ccccc34)ccnc2c1 [TCMDC-137751]	0 (0: NO)	0 (0: NO)	2.44	1080	1.15	3.74	1020
CS(=O)(=O)O.CSc1ccc2ccccc2c1CCNCCCCNCCc1c(SC)ccc2ccccc12 [TCMDC-137763]	0 (0: NO)	0 (0: NO)	1.73	230	1.82	1.65	1010
CC1CCCCN1CCCNc1nc(NCc2ccccc2)c2ccccc2n1 (centres unmarked) [TCMDC-137771]	1 (1: YES)	0 (0: NO)	17.35	140	14.62	20.07	7250
COc1cc2ccccc2c(CNCCCCCCNCc2c(OC)c(OC)cc3ccccc23)c1OC.CS(=O)(=O)O [TCMDC-137795]	0 (0: NO)	0 (0: NO)	4.66	1050	4.62	4.7	670
COc1ccc2ccc(OC)c(CNCCCCCCNCc3c(OC)ccc4ccc(OC)cc34)c2c1.CS(=O)(=O)O [TCMDC-137796]	1 (1: YES)	0 (0: NO)	3.36	290	3.31	3.4	1210
